The values that follow come from ChEMBL document CHEMBL5104103 (J Med Chem, 2022).

SMILES strings stand for the structures. A value given as a limit tells only on which side of the number the result lay.

For this experiment, the target named is Adenosine receptor A3 (Homo sapiens) (UniProt P0DMS8). Put plainly: Displacement of [125I]AB-MECA from recombinant human Adenosine receptor A3 at 10 uM incubated for 120 mins by radiometric scintillation assay relative to control.
Sequence of Adenosine receptor A3 (Homo sapiens) (P0DMS8 whole entry): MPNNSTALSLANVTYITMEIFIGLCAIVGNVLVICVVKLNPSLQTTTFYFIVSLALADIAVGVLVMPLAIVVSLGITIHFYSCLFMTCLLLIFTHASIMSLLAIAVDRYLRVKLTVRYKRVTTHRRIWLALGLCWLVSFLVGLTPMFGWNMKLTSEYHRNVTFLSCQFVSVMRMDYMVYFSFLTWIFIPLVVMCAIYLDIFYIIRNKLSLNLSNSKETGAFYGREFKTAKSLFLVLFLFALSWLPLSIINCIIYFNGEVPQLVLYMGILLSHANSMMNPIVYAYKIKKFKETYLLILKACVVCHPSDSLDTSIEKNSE

`CC(C)(C)/C=C(\C#N)C(=O)N1CCC[C@@H](n2nc(-c3ccc(Oc4ccccc4)cc3F)c3c(N)ncnc32)C1` [ATUZABRUTINIB]: the inhibition is more than 50%.
